In the NIST ThermoML archive (doi:10.1016/j.jct.2010.12.021):

Assay: molar heat capacity at constant pressure
Settings: 101.33 kPa, Small sample (50 mg) DSC

CCCCCC[n+]1cccc2ccccc21.O=S(=O)([N-]S(=O)(=O)C(F)(F)F)C(F)(F)F [1-hexylquinolinium bis(trifluoromethylsulfonyl)amide]
Settings | molar heat capacity at constant pressure [J/K/mol]
283.12 K, Crystal | 420.81
283.72 K, Crystal | 421.99
284.32 K, Crystal | 423.19
284.92 K, Crystal | 424.39
285.52 K, Crystal | 425.58
286.12 K, Crystal | 426.78
286.72 K, Crystal | 427.94
287.32 K, Crystal | 429.07
287.92 K, Crystal | 430.21
288.52 K, Crystal | 431.37
289.12 K, Crystal | 432.53
289.72 K, Crystal | 433.71
290.32 K, Crystal | 434.96
290.92 K, Crystal | 436.29
291.52 K, Crystal | 437.63
292.12 K, Crystal | 439.04
292.72 K, Crystal | 440.54
293.32 K, Crystal | 442.04
293.92 K, Crystal | 443.6
294.52 K, Crystal | 445.19
295.12 K, Crystal | 446.81
295.72 K, Crystal | 448.46
296.32 K, Crystal | 450.18
296.92 K, Crystal | 451.92
297.52 K, Crystal | 453.71
298.12 K, Crystal | 455.57
298.72 K, Crystal | 457.56
299.32 K, Crystal | 459.55
299.92 K, Crystal | 461.52
300.52 K, Crystal | 463.69
301.12 K, Crystal | 465.97
301.72 K, Crystal | 468.26
302.32 K, Crystal | 470.81
302.92 K, Crystal | 473.57
303.52 K, Crystal | 476.39
304.12 K, Crystal | 479.52
304.73 K, Crystal | 483.2
305.33 K, Crystal | 487.13
305.93 K, Crystal | 491.57
306.53 K, Crystal | 497.37
307.13 K, Crystal | 504.13
307.72 K, Crystal | 510.47
308.32 K, Crystal | 518.68
308.92 K, Crystal | 531.59
309.52 K, Crystal | 546.05
310.12 K, Crystal | 573.74
310.72 K, Crystal | 653.81
311.32 K, Crystal | 795.64
311.92 K, Crystal | 921.44
312.51 K, Crystal | 1266.8
313.09 K, Crystal | 2288.5
313.66 K, Crystal | 3477.3
314.23 K, Crystal | 4856
314.8 K, Crystal | 6301.5
315.37 K, Crystal | 7631.8
315.94 K, Crystal | 9002.3
316.54 K, Crystal | 9157.6
317.17 K, Liquid | 7971.7
317.8 K, Liquid | 6765.5
318.43 K, Liquid | 5315.4
319.06 K, Liquid | 3937.3
319.69 K, Liquid | 2716.7
320.31 K, Liquid | 1646.2
320.92 K, Liquid | 1124.2
321.52 K, Liquid | 783.96
322.12 K, Liquid | 605.73
322.72 K, Liquid | 578.47
323.33 K, Liquid | 579.09
323.93 K, Liquid | 579.53
324.53 K, Liquid | 579.5
325.13 K, Liquid | 579.81
325.73 K, Liquid | 580.31
326.33 K, Liquid | 580.35
326.93 K, Liquid | 580.48
327.53 K, Liquid | 580.91
329.93 K, Liquid | 582.05
330.53 K, Liquid | 582.3
331.13 K, Liquid | 582.61
331.73 K, Liquid | 582.85
332.33 K, Liquid | 583.14
332.93 K, Liquid | 583.5
333.53 K, Liquid | 583.82
334.13 K, Liquid | 584.2
334.73 K, Liquid | 584.61
335.33 K, Liquid | 585.06
335.93 K, Liquid | 585.62
336.53 K, Liquid | 586.11
337.13 K, Liquid | 586.52
337.73 K, Liquid | 586.92
338.33 K, Liquid | 587.33
338.93 K, Liquid | 587.69
339.53 K, Liquid | 587.94
340.13 K, Liquid | 588.08
340.73 K, Liquid | 588.35
341.33 K, Liquid | 588.62
341.93 K, Liquid | 588.83
342.54 K, Liquid | 589.03
343.13 K, Liquid | 589.23
343.73 K, Liquid | 589.47
344.33 K, Liquid | 589.68
344.93 K, Liquid | 589.8
345.53 K, Liquid | 589.91
346.13 K, Liquid | 590.01
346.73 K, Liquid | 590.17
347.33 K, Liquid | 590.33
347.93 K, Liquid | 590.52
348.53 K, Liquid | 590.79
349.13 K, Liquid | 591.11
349.73 K, Liquid | 591.46
350.33 K, Liquid | 591.81
350.93 K, Liquid | 592.11
351.53 K, Liquid | 592.4
352.13 K, Liquid | 592.64
352.73 K, Liquid | 592.89
353.33 K, Liquid | 593.12
353.93 K, Liquid | 593.32
354.53 K, Liquid | 593.58
355.13 K, Liquid | 593.86
355.73 K, Liquid | 594.11
356.33 K, Liquid | 594.37
356.93 K, Liquid | 594.62
357.53 K, Liquid | 594.9
358.13 K, Liquid | 595.2
358.73 K, Liquid | 595.42
359.33 K, Liquid | 595.58
359.93 K, Liquid | 595.78
360.53 K, Liquid | 595.96
361.13 K, Liquid | 596.12
361.73 K, Liquid | 596.19
362.33 K, Liquid | 596.29
362.93 K, Liquid | 596.51
363.53 K, Liquid | 596.79
364.13 K, Liquid | 597.06
364.73 K, Liquid | 597.35
365.33 K, Liquid | 597.68
365.93 K, Liquid | 598.06
366.53 K, Liquid | 598.36
367.13 K, Liquid | 598.59
367.73 K, Liquid | 598.82
368.33 K, Liquid | 599
368.93 K, Liquid | 599.12
369.53 K, Liquid | 599.24
370.13 K, Liquid | 599.38
